Experimental data as given in ChEMBL document CHEMBL3813655 (ACS Med Chem Lett, 2016).
Activity calls are given as the source filed them. The rule behind the calls is not given here.

Assays:
[1] = molecular target: Receptor-type tyrosine-protein kinase FLT3 (Homo sapiens, UniProt P36888, D835Y)
[2] = molecular target: Receptor-type tyrosine-protein kinase FLT3 (Homo sapiens, UniProt P36888, ITD)
Serum = test: Protein binding in 10% human serum at 100 uM after 3 days; assay type: ADME; details: 72 h
MOLM-13 = test: Antiproliferative activity against pMMP-LucNeo fused human MOLM13 cells assessed as cell viability after 3 days by cell titer glo assay; assay type: functional, cell-based
MOLM-14 = test: Antiproliferative activity against human MOLM14 cells assessed as cell viability after 3 days by cell titer glo assay; assay type: functional, cell-based
HEL = test: Antiproliferative activity against human HEL cells assessed as cell viability by cell titer glo assay; assay type: functional, cell-based
NOMO-1 = test: Antiproliferative activity against human NOMO1 cells assessed as cell viability by cell titer glo assay; assay type: functional, cell-based
Homo sapiens = organism: Homo sapiens; test: Antiproliferative activity against human P31 cells assessed as cell viability by cell titer glo assay; assay type: functional, cell-based
K562 = test: Antiproliferative activity against human K562 cells assessed as cell viability by cell titer glo assay; assay type: functional, cell-based
PF-382 = test: Antiproliferative activity against human PF382 cells assessed as cell viability by cell titer glo assay; assay type: functional, cell-based
U-937 = test: Antiproliferative activity against human U937 cells assessed as cell viability by cell titer glo assay; assay type: functional, cell-based
K052 = test: Antiproliferative activity against human K052 cells assessed as cell viability by cell titer glo assay; assay type: functional, cell-based
NALM-6 = test: Antiproliferative activity against human NALM6 cells assessed as cell viability by cell titer glo assay; assay type: functional, cell-based
NB-4 = test: Antiproliferative activity against pMMP-LucNeo fused human NB4 cells assessed as cell viability by cell titer glo assay; assay type: functional, cell-based
THP-1 = test: Antiproliferative activity against human THP1 cells assessed as cell viability by cell titer glo assay; assay type: functional, cell-based
[3] = Cell cycle arrest in […]-ITD mutant expressing mouse BA/F3 cells assessed accumulation at G1 phase up to 100 nM after 48 hrs by propidium iodide staining based FACS analysis; assay type: functional; details: BaF3
BaF3 [4] = test: Induction of apoptosis in […]-ITD mutant expressing mouse BA/F3 cells up to 1000 nM after 48 hrs by Annexin V-fluos assay; assay type: functional, cell-based
[5] = Cell cycle arrest in […]-D835Y mutant expressing mouse BA/F3 cells assessed accumulation at G1 phase up to 100 nM after 48 hrs by propidium iodide staining based FACS analysis; assay type: functional; details: BaF3
BaF3 [6] = test: Induction of apoptosis in […]-D835Y mutant expressing mouse BA/F3 cells up to 1000 nM after 48 hrs by Annexin V-fluos assay; assay type: functional, cell-based
[7] = Antiproliferative activity against human patient-derived FLT3 D835Y mutant expressing AML cells primagrafted in mouse spleen after 3 days; assay type: functional, cell-based; details: 72 h
[8] = Antiproliferative activity against human patient-derived FLT3 ITD mutant expressing AML cells primagrafted in mouse spleen after 3 days; assay type: functional, cell-based; details: 72 h
[9] = molecular target: Phosphorylase b kinase gamma catalytic chain, skeletal muscle/heart isoform (Homo sapiens, UniProt Q16816); test: Inhibition of PHKGI (unknown origin) by kinomescan analysis
Phosphorylase b kinase gamma catalytic chain, skeletal muscle/heart isoform, sequence (Q16816 whole entry, canonical isoform): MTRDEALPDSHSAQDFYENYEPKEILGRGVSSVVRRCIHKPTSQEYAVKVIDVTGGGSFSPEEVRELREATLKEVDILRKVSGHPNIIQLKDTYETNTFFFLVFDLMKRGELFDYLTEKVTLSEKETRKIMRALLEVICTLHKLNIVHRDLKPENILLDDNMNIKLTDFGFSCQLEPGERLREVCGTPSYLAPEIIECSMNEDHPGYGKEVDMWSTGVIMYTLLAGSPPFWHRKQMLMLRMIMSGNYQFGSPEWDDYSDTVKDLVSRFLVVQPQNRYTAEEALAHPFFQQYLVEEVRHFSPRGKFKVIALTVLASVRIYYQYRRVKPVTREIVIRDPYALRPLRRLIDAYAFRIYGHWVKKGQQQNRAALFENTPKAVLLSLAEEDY

[10] = molecular target: Dual specificity protein kinase CLK4 (Homo sapiens, UniProt Q9HAZ1); test: Inhibition of CLK4 (unknown origin) by kinomescan analysis
Dual specificity protein kinase CLK4, sequence (Q9HAZ1 whole entry): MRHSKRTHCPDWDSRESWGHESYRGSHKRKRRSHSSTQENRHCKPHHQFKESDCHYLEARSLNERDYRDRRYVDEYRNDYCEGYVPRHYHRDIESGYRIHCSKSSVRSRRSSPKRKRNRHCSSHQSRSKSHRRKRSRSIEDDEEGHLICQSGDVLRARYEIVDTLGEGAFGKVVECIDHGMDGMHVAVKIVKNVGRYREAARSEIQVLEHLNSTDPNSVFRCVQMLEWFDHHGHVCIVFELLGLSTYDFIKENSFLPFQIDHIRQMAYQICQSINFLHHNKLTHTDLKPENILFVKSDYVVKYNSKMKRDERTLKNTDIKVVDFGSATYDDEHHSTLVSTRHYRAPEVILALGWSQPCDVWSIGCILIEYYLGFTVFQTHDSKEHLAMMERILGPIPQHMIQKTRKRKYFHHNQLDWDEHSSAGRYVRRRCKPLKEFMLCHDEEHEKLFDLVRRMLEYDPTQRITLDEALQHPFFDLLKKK

[11] = molecular target: Rho-associated protein kinase 2 (Homo sapiens, UniProt O75116); test: Inhibition of ROCK2 (unknown origin) by kinomescan analysis
Rho-associated protein kinase 2, sequence (O75116 whole entry): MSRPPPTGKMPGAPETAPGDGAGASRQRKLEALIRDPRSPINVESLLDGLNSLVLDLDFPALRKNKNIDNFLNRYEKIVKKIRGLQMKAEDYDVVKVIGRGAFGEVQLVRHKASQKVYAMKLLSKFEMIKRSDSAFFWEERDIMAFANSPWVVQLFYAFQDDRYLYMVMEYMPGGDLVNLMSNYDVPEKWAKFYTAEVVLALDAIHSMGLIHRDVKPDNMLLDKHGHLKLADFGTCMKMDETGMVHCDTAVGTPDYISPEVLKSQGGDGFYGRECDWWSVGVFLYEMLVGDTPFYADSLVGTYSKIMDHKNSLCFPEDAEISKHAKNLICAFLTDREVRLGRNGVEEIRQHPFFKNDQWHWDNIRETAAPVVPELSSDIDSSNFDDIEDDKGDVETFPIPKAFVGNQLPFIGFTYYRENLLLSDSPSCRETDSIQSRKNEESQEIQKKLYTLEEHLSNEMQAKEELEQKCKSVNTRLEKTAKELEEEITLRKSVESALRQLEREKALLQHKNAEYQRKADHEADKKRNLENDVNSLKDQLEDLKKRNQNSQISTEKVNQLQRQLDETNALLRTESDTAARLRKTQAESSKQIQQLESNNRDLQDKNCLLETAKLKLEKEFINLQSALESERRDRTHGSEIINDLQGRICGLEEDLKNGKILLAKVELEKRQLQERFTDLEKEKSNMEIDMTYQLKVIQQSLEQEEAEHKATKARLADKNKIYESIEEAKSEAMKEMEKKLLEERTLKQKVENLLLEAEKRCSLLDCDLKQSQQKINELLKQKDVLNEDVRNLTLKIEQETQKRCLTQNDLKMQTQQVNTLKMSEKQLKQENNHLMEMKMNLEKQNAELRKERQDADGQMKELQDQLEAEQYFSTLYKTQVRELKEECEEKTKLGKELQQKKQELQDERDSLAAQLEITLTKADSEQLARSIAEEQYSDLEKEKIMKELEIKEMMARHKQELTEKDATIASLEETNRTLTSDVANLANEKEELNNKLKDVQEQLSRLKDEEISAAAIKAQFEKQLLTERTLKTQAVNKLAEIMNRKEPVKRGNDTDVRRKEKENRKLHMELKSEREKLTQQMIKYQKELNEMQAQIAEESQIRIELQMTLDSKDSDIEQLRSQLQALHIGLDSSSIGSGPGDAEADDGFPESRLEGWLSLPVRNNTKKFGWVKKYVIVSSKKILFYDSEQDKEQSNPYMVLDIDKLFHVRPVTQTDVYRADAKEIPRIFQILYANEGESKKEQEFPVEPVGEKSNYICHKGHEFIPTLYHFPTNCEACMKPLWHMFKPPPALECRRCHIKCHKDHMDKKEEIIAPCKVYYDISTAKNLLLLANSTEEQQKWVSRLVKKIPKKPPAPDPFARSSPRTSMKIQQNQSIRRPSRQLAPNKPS

[12] = molecular target: Dual specificity protein kinase CLK1 (Homo sapiens) (UniProt P49759); test: Inhibition of CLK1 (unknown origin) at 1 uM by kinomescan analysis
Dual specificity protein kinase CLK1 (Homo sapiens), sequence (P49759 whole entry, looked up): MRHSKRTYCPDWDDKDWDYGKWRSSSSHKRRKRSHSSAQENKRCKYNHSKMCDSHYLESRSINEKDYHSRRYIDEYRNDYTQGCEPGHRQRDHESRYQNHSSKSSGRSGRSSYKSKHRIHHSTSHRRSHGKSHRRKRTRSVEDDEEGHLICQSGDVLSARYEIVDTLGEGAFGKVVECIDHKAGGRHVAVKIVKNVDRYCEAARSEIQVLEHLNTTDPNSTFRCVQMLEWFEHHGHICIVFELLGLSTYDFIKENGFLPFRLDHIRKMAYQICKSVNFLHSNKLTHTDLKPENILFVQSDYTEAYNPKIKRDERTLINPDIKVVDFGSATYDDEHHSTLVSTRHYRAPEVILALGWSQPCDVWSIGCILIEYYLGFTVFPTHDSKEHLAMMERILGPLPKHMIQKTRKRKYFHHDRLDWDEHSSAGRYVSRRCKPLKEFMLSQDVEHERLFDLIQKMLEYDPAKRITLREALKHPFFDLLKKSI

[13] = Half life in mouse microsomes; assay type: ADME, Microsome
Plasma = test: Stability in mouse plasma after 6 hrs; assay type: ADME, cell-free
[14] = molecular target: Receptor-type tyrosine-protein kinase FLT3 (Homo sapiens) (UniProt P36888); details: 1 uM
Description: Inhibition of wild type FLT3 (unknown origin) at 1 uM by kinomescan analysis

[15] = tested on: Receptor-type tyrosine-protein kinase FLT3 (Homo sapiens), P36888 [UNDEFINED MUTATION]; details: 1 uM
[16] = tested on: Receptor-type tyrosine-protein kinase FLT3 (Homo sapiens), P36888 [N841I]; details: 1 uM
Description: Inhibition of FLT3 N841I mutant (unknown origin) at 1 uM by kinomescan analysis

[17] = tested on: Receptor-type tyrosine-protein kinase FLT3 (Homo sapiens), P36888 [D835V]; details: 1 uM
Description: Inhibition of FLT3 D835V mutant (unknown origin) at 1 uM by kinomescan analysis

[18] = tested on: Receptor-type tyrosine-protein kinase FLT3 (Homo sapiens), P36888 [UNDEFINED MUTATION]; details: 1 uM; remark: listed apart in the source
[19] = tested on: Receptor-type tyrosine-protein kinase FLT3 (Homo sapiens), P36888 [UNDEFINED MUTATION]; details: 1 uM; remark: listed apart in the source
[20] = tested on: Receptor-type tyrosine-protein kinase FLT3 (Homo sapiens), P36888 [R834Q]; details: 1 uM
Description: Inhibition of FLT3 R834Q double mutant (unknown origin) at 1 uM by kinomescan analysis

- IC50 [1]: 0.004 µM
- IC50 [2]: 0.01 µM
- PB (Serum): Active
- IC50 [9]: 0.078 µM
- IC50 [10]: 0.142 µM
- IC50 [11]: 0.936 µM
- inhibition [12]: Active
- half-life [13]: 15 min
- Stability (Plasma): Stable
- inhibition [14]: > 95%
- inhibition [15]: > 95%
- inhibition [16]: > 95%
- inhibition [17]: > 95%
- inhibition [18]: > 95%
- inhibition [19]: > 95%
- inhibition [20]: > 95%
SMILES: CN(C)CCCn1cc(-c2ccc3c(c2)-c2[nH]c4cc(-c5cn[nH]c5)ccc4c2C3=O)cn1
- Activity (MOLM-13): Active
- Activity (MOLM-14): Active
- Activity (HEL): inactive
- Activity (NOMO-1): inactive
- Activity (Homo sapiens): inactive
- Activity (K562): inactive
- Activity (PF-382): inactive
- Activity (U-937): inactive
- Activity (K052): inactive
- Activity (NALM-6): inactive
- Activity (NB-4): inactive
- Activity (THP-1): inactive
- Activity [3]: Active
- Activity (BaF3 [4]): Active
- Activity [5]: inactive
- Activity (BaF3 [6]): Active
- IC50 [7]: 0.07 µM
- IC50 [8]: 0.07 µM
